Test results: article PMC10295897, “A Novel MDM2-Binding Chalcone Induces Apoptosis of Oral Squamous Cell Carcinoma” (Biomedicines, 2023)
Like-named read-outs stand apart in the source and are kept apart here.

Key:
[1] = system: HT29 (adenocarcinoma); experiment: MTT cell viability assay, HT29; assay type: cell-based
Procedure: (§1) The viability of SCC cell lines, HT-29, HCT-116, HEP2G and primary human fibroblast cells was evaluated using the MTT assay as in [26]. Briefly, the cells were grown in duplicates in 96-well plates (5 × 10^3 cells/well) until confluence. Then, the medium was removed, fresh medium was added, and the cells were returned to the incubator in the presence of different compounds. DMSO at the same concentrations was used as a 100% cell viability control. After 48 h, the cells were incubated with 5 mg/mL MTT reagent (3-(4,5-dimethyl-2-thiazolyl)-2,5-diphenyl-2-H-tetrazolium bromide) (Sigma-Aldrich Co., St. Louis, MO, USA) for 3.5 h. After that, formazan crystals were dissolved in MTT solvent solution (DMSO/methanol 1:1 v/v), and the absorbance at 560 nm was evaluated using an EPOCH microplate spectrophotometer (BioTek Instruments, Winooski, VT, USA) with the background absorbance at 670 nm subtracted. Each of the six compounds was tested at six or seven different concentrations, ranging from 0.3 µM to 200 µM in cancer cell lines (SCC-4, SCC-9 and SCC-25) and 0.3 µM to 200 µM in primary normal human gingival fibroblasts. Controls (carboplatin, nutlin 3a) were tested at six or seven different concentrations ranging from 0.05 µM to 1000 µM in cancer cells and normal cells, depending on the compound.
(§2) The data are presented as means ± SD. IC values for the MTT assays were obtained by nonlinear regression using the […] 5.0 program (Intuitive Software for Science, San Diego, CA, USA) from at least three independent experiments. A dose–response (inhibitor) vs. response curve using the least squares method was used to determine the IC50, SD, and R^2 of the data. The selectivity index was calculated as SI = IC50 of the compound in normal oral fibroblast cells/IC50 of the same compound for each cancer cell line (SCC-4, SCC-9, SCC-25, HCT-116, HT29 and HEP2G), and the mean was calculated when indicated.

[2] = system: SCC9 cells; experiment: MTT cell viability assay, SCC9 oral cancer cells; assay type: cell-based, human; conditions: for IC50: MTT; for SCC9 S.I.: selective index = IC50 HGF / IC50 SCC9; for dose-dependent cytotoxicity: SCC9, MTT
Procedure: (§3) Human SCC-4, SCC-9, and SCC-25 cells derived from a human oral tongue SCC (squamous cell carcinoma) were obtained from the ATCC (CRL-1624, CRL-1629, and CRL-1628, respectively) and maintained in 1:1 DMEM/F12 (Dulbecco’s modified Eagle medium and Ham’s F12 medium; Gibco (Thermo Fisher, Waltham, MA, USA)) supplemented with 10% (v/v) FBS (fetal bovine serum; Invitrogen, Thermo Fisher, Waltham, MA, USA) and 400 ng/mL hydrocortisone (Sigma-Aldrich Co., St. Louis, MO, USA). Primary normal human gingival fibroblasts were obtained from the ATCC (PCS-201-018; HGF) and maintained in DMEM supplemented with 10% (v/v) FBS and were used in a maximum of six passages. The cells were grown in a humidified environment containing 5% CO2 at 37 °C. For all biological experiments, the compounds and control nutlin 3a were solubilized in 100% DMSO (all Sigma-Aldrich) to a final concentration of 10 mM. Carboplatin stock was prepared in water (Fauldcarbo®; LibbsFarmacêutica, São Paulo, SP, Brazil) and was used as a standard anticancer compound.
as §1, §2
Initially, the six chalcones (1a–f) were submitted to the MTT assay to evaluate their cytotoxicity. The assay was performed using the oral cancer cell line SCC9, and the results were analyzed by a non-linear regression curve to determine the value of the half maximal inhibitory concentration (IC50). As controls, known chemotherapeutic agents were used, namely carboplatin, routinely used in the treatment of oral cancer, and doxorubicin, widely used for other types of cancers.

[3] = system: Primary Gingival Fibroblast (HGF); experiment: MTT cell viability assay, primary normal gingival fibroblasts; assay type: cell-based, human; conditions: 48 h
Procedure: as §3, §1, §2

[4] = system: SCC25 cells; experiment: MTT cell viability assay, SCC25 cells; assay type: cell-based, human; conditions: for IC50: 48 h, MTT; for SCC25 S.I.: selective index = IC50 HGF / IC50 SCC25
Procedure: as §3, §1, §2

[5] = system: SCC4 cells; experiment: MTT cell viability assay, SCC4 cells; assay type: cell-based, human; conditions: for IC50: 48 h, MTT; for SCC4 S.I.: selective index = IC50 HGF / IC50 SCC4
Procedure: as §3, §1, §2

[6] = system: Oral Tumor Cells (SCC9, SCC25, SCC4); experiment: MTT assay, average over oral tumor cells; assay type: cell-based, human; conditions: for IC50: mean of SCC9, SCC25, SCC4; for Average S.I.: IC50 of normal primary fibroblasts / average IC50 of tumor cells
Procedure: as §1, §2

[7] = Solubility observed during in vitro testing; assay type: physicochemical; conditions: in vitro cytotoxicity testing
[8] = Homo sapiens, SCC-9, 48 h, 48 h, read-out: SCC9 IC50
[9] = Homo sapiens, SCC-9, 48 h, SCC9, 48 h, read-out: IC50

In the case of `COc1ccc(C2=N[C@@H](c3ccc(Cl)cc3)[C@@H](c3ccc(Cl)cc3)N2C(=O)N2CCNC(=O)C2)c(OC(C)C)c1` [nutlin-3a, reference compound], the IC50 ([1]; 48 h, MTT) is reported as 6.79 µM, the “HT29 S.I.” value ([1]; IC50 HGF / IC50 HT29) is reported as 7.22 and the IC50 ([2]; 48 h, read-out: SCC9 IC50) is reported as 18 µM. For the same compound, the “SCC9 S.I.” value [2] was 2.72 and the IC50 [3] was 49.1 µM.

In the case of `COc1cccc2c1C(=O)c1c(O)c3c(c(O)c1C2=O)C[C@@](O)(C(=O)CO)C[C@@H]3O[C@H]1C[C@H](N)[C@H](O)[C@H](C)O1` [Doxorubicin, doxorubicin, reference compound], the IC50 ([4]; Homo sapiens, SCC-25) is reported as 0.9 µM, the “SCC25 S.I.” value [4] is reported as 3.86 and the IC50 ([5]; Homo sapiens, SCC-4) is reported as 0.57 µM. For the same compound, the “SCC4 S.I.” value [5] was 6.09, the IC50 [2, 8] was 2.99 µM and the IC50 [2, 9] was 2.99 µM. The “SCC9 S.I.” value [2] was 1.16, the IC50 ([6]; Homo sapiens) was 1.49 µM and the “Average S.I.” value [6] was 2.34. It also gave an IC50 ([3]; Homo sapiens, Fibroblast) of 3.47 µM.

With `CCOC(=O)c1ccc(-n2cc(/C=C/C(=O)c3ccccc3N)nn2)cc1` [1e, Ethyl(E)-4-(4-(3-(2-aminophenyl)-3-oxoprop-1-en-1-yl)-1H-1,2,3-triazol-1-yl)benzoate] the dose-dependent cytotoxicity [2] was “all presented dose-dependent cytotoxicity, except” and the melting point was 220 to 222 °C.

In the case of `N.N.O=C([O-])C1(C(=O)[O-])CCC1.[Pt+2]` [Carboplatin, carboplatin, reference compound], the IC50 [4] is reported as 191 µM, the “SCC25 S.I.” value [4] is reported as 1.75 and the IC50 [5] is reported as 148 µM. The “SCC4 S.I.” value [5] was 2.26, the IC50 ([2]; 48 h, read-out: SCC9 IC50) was 156 µM and the IC50 ([2]; SCC9, 48 h, read-out: IC50) was 156 µM. For the same compound, the “SCC9 S.I.” value [2] was 2.15, the “Average S.I.” value [6] was 2.03 and the IC50 [6] was 165 µM. For the same compound, the IC50 [3] was 335 µM.

For `Nc1ccccc1C(=O)/C=C/c1cnn(-c2ccccc2)n1` [1a, (E)-1-(2-Aminophenyl)-3-(2-phenyl-2H-1,2,3-triazol-4-yl)prop-2-en-1-one], the “solubility (in words)” value [7] was “formed highly insoluble well-structured crystals at low concentrations”, the IC50 [2, 9] was 9.95 µM and the melting point was 128 to 130 °C.

With `Nc1ccccc1C(=O)/C=C/c1cn(-c2ccccc2)nn1` [1b, (E)-1-(2-Aminophenyl)-3-(1-phenyl-1H-1,2,3-triazol-4-yl)prop-2-en-1-one] the IC50 ([4]; Homo sapiens, SCC-25) was 12.5 µM, the “SCC25 S.I.” value [4] was 2.85 and the “solubility (in words)” value [7] was “highly soluble”. For the same compound, the IC50 ([5]; Homo sapiens, SCC-4) was 12.6 µM, the “SCC4 S.I.” value [5] was 2.83 and the IC50 [2, 8] was 12.7 µM. For the same compound, the IC50 [2, 9] was 12.7 µM, the “SCC9 S.I.” value [2] was 2.80 and the IC50 ([6]; Homo sapiens) was 12.6 µM. The “Average S.I.” value [6] was 2.82, the IC50 ([3]; Homo sapiens, Fibroblast) was 35.7 µM and the melting point was 183 to 185 °C.

With `COc1ccc(-n2cc(/C=C/C(=O)c3ccccc3N)nn2)cc1` [1c, (E)-1-(2-Aminophenyl)-3-(1-(4-methoxyphenyl)-1H-1,2,3-triazol-4-yl)prop-2-en-1-one] the “solubility (in words)” value [7] was “formed highly insoluble well-structured crystals at low concentrations”, the IC50 [2, 9] was 9.32 µM and the melting point was 174 to 176 °C.

With `Nc1ccccc1C(=O)/C=C/c1cn(-c2ccc([N+](=O)[O-])cc2)nn1` [1d, (E)-1-(2-Aminophenyl)-3-(1-(4-nitrophenyl)-1H-1,2,3-triazol-4-yl)prop-2-en-1-one] the dose-dependent cytotoxicity [2] was “all presented dose-dependent cytotoxicity, except” and the melting point was 253 to 255 °C.
